This note sets out measurements from patent US10351553B2, “Potassium channel modulators” (Cadent Therapeutics, Inc., priority 2017, dated 2019).

Series [1] addresses T1, SK2 channels (Homo sapiens, UniProt Q9H2S1).
T1 construct: expressed in transfected cells; host or cells: HEK293
As to the kind of experiment: Whole-cell patch-clamp of SK2 current in HEK293 cells expressing SK2 channels. The format is cell-based. The note with it: for SK2 potency (SC100): Table 2, concentration that produces doubling of channel current, averages from later experiments. The procedure: The biological activity was determined as follows. The ionic current through small-conductance Ca^2+-activated K^+ channels (SK channels, subtype 2) was measured using the whole-cell configuration of the patch-clamp technique in a patch-clamp set-up using HEK293 tissue culture cells expressing SK2 channels as described in Hougaard et al., British Journal of Pharmacology 151, 655-665, May 8, 2007, the entire teachings of which are incorporated herein by reference. In one aspect, a compound is defined to be an SK Positive Allosteric Modulator (PAM) if the compound increases current in this assay, for example, if the SC100 value of the compound is less than or equal to 10 μM as determined by this assay. The SC100 value is defined to be the concentration of compound that increases the basal current by 100%.
A general note: Patch clamp records ionic current or voltage across a cell membrane.

The nature of series [2]: Brain free fraction by equilibrium dialysis in rat brain tissue homogenate. The format is in vitro ADME. The note with it: 10% rat brain tissue homogenate, Tables 2 and 3. The procedure: The extent to which compounds modulate SK2 channels in vivo is expressed as % SK2 SC100, which is the ratio of the concentration of the drug free in the brain to the measured potency of the compound on the SK2 channel. It is calculated as follows: CFB=CMB×BFF, where CMB is the concentration of compound measured by liquid chromatography mass spectrometry from brains harvested immediately following tremor recording (Table 1, “Measured Brain Concentration”). CFB is the amount of free compound not complexed with protein and therefore free to interact with the SK2 channel (Table 1, “Calculated Free Brain Concentration”). BFF is average free fraction of compound as measured by equilibrium dialysis in separate experiments (1 uM test concentration incubated in 10% rat brain tissue homogenate for 5 hours at 37° C.) (Table 1, “Brain Free Fraction”). Free drug in brain available to interact with SK2 channels (CFB) is arrived at by multiplying the measured total brain level (CMB) by the average free fraction (BFF).

Series [3] is described as follows: Aqueous (kinetic) solubility, shake-flask, phosphate buffer pH 7.4. The note with it: 23 °C, kinetic from dmso stock, phosphate buffer pH 7.4, 16 hours at room temperature. The series is classed as physicochemical. The procedure:
Aqueous solubility (kinetic solubility) tests of the compounds were performed in phosphate buffer saline (pH 7.4) measured by shake-flask method. In this assay, DMSO stock solution of test compound is added to buffer followed by equilibration (shaking), filtration and determination of soluble amount by HPLC-UV Conditions used in the assay are summarized below.

A short description of series [4]: Metabolic stability in liver microsomes, rat. The following applies: % remaining at 1 hour; 1 μM. The series is classed as in vitro ADME. The procedure:
(§1) Metabolic stability profiling of the compounds was performed in liver microsomes. In this assay, test compound is incubated with liver microsomes in the presence of NADPH for 2 time points at 37° C. At the end of incubation, reaction is quenched with acetonitrile containing internal standard and the parent compound remaining is determined by LC-MS/MS. Conditions used in the assay are summarized below. […], 37° C. • Test concentration: 1 μM in 0.02% DMSO at pH 7.4 (n=2) • NADPH concentration in assay: 1 mM • Liver microsome protein concentration in assay: 0.5 mg/ml • Analysis: LC-MS/MS • Data reported: % Parent Compound Remaining (% PCR) • Reference compounds for high and low clearance are included • Species tested: mouse, rat, dog, monkey, and human
(In general: Liver microsomes are vesicles of endoplasmic reticulum, rich in cytochrome P450 enzymes.)

Series [5] in a line: Metabolic stability in liver microsomes, dog. The format is in vitro ADME. The note with it: % remaining at 1 hour; 1 μM. As to the method:
as §1

The nature of series [6]: Metabolic stability in liver microsomes, monkey. The format is in vitro ADME. The following applies: % remaining at 1 hour; 1 μM. The procedure:
as §1

Series [7] addresses T2, CYP1A2 (Homo sapiens, UniProt P05177).
T2 construct: Matrix: Human Liver Microsome (Invitrogen, life technologies); tissue Invitrogen, life technologies; host or cells: human liver microsomes
T2 sequence (P05177 1-516): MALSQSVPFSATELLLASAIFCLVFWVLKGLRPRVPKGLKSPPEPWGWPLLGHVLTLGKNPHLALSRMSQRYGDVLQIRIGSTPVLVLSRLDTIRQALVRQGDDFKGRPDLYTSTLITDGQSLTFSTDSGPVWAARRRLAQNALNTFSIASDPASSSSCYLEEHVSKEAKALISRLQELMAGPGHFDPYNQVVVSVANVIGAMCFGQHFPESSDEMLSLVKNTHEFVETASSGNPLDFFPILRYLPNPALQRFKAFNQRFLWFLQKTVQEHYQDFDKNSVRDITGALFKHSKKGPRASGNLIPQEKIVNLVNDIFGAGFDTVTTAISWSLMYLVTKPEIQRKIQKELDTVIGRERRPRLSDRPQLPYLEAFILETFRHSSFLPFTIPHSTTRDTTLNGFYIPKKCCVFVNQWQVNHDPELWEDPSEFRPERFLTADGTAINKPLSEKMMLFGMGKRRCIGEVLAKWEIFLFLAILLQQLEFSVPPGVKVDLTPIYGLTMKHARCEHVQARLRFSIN
As to the kind of experiment: CYP inhibition in human liver microsome, CYP1A2 (Phenacetin). The series is classed as in vitro ADME. The procedure: (§2) Compounds described herein were tested for CYP inhibition across 5 isoforms (3A4, 2D6, 2C9, 2C19 & 1A2). In this assay, CYP isoform specific substrates are incubated with human liver microsome (HLM) in the presence of test compounds, and metabolite formation is determined. Percentage inhibition of metabolite formation at different concentrations of test compound is calculated and IC50 is determined. Conditions used in the assay are summarized below. Results are shown in Table 2. • Test drug (Inhibitor) Concentration: 8 different concentrations (100 μM to 0.005 μM) • Matrix: Human Liver Microsome (Invitrogen, life technologies) • Specific probe substrates will be used for the isoforms as given below: • CYP3A4: Midazolam • CYP2D6: Bufuralol • CYP2C9: Diclofenac • CYP2C19: Mephynitoin • CYP1A2: Phenacetin • Cofactors: NADPH (1 mM final in assay) • Sample Analysis: LC-MS/MS (metabolites) • Specific reference inhibitors included in all assays (Ketoconazole/Quinidine/Sulphaphenazole/Ticlopidine/Furafylline) • Buffer: Potassium Phosphate Buffer (100 mM) pH 7.4 • DMSO level in assay: 0.1% • Data analysis: % Inhibition over control

Series [8] deals with T3, CYP3A4 (Homo sapiens, UniProt P08684).
T3 construct: Matrix: Human Liver Microsome (Invitrogen, life technologies); tissue Invitrogen, life technologies; host or cells: human liver microsomes
As to the kind of experiment: CYP inhibition in human liver microsome, CYP3A4 (Midazolam). The format is in vitro ADME. The procedure:
as §2

The target in series [9] is T4, CYP2D6 (Homo sapiens, UniProt P10635).
T4 construct: Matrix: Human Liver Microsome (Invitrogen, life technologies); tissue Invitrogen, life technologies; host or cells: human liver microsomes
Nature of the series: CYP inhibition in human liver microsome, CYP2D6 (Bufuralol). The format is in vitro ADME. The procedure: as §2

Values after ≈ are worked out from the molar mass of the structure shown.

T4 sequence (P10635 whole entry): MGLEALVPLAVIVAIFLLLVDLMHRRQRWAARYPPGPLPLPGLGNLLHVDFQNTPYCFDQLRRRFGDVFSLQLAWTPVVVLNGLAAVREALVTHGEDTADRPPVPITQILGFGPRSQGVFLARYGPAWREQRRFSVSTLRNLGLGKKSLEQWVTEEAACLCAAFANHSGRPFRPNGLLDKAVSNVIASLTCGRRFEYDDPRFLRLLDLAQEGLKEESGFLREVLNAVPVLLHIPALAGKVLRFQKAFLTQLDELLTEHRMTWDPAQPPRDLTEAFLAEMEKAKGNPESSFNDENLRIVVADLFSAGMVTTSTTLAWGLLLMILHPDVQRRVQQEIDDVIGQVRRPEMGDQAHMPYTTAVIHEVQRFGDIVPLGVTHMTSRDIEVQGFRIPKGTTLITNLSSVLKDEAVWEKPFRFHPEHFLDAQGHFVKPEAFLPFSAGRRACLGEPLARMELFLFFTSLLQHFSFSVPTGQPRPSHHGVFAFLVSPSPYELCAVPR
T3 sequence (P08684 whole entry): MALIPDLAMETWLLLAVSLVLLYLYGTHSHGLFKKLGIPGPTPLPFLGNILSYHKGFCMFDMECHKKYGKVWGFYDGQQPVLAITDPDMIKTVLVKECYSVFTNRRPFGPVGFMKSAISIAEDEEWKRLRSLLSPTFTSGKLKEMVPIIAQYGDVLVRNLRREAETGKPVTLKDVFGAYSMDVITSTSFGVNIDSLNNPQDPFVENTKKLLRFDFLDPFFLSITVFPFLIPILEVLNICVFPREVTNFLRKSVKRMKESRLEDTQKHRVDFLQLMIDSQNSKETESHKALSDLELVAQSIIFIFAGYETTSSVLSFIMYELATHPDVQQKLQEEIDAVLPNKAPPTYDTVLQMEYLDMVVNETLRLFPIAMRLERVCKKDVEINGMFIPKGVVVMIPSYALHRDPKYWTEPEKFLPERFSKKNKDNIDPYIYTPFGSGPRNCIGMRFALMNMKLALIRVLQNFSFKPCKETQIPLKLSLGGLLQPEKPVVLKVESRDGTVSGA

Turning to `Cc1cc(NC2CCCCC2)nc(-n2nc(C)cc2C)n1` [Comparator A, reference compound], the “SK2 potency (SC100)” value in series [1] was 1.38 µM. Besides, the fraction unbound at 5 h, 1 uM in [2] is 0.012. The solubility (kinetic) at 16 h in series [3] worked out at 17 µg/mL (≈ 59.6 µM). In addition, the “Liver microsome stability, Rat” value in [4] was determined as 1%. The “Liver microsome stability, Dog” value in series [5] came out at 2%. Besides, the “Liver microsome stability, Monkey” value in [6] is reported as 1%. Further, the IC50 in series [7] was 0.64 µM; in series [8], over 10 µM; in [9], 0.79 µM.
For the compound `Cc1ccn(-c2nc(NC3CCC(F)(F)CC3)cc(N3CCOCC3)n2)n1` [Compound 1, N-(4,4-difluorocyclohexyl)-2-(3-methyl-1H-pyrazol-1-yl)-6-morpholinopyrimidin-4-amine], the “Measured SK2 SC100” value in series [1] (Table 1, concentration that increases the basal current by 100%) worked out at 0.5 µM. In addition, the “SK2 potency (SC100)” value in series [1] was determined as 0.4 µM. The compound also came in with a fraction unbound at 5 h, 1 uM in series [2] of 0.061. In [3], this compound had a kinetic solubility at 16 h of 74 µg/mL (≈ 196 µM). Further, in series [4], the “Liver microsome stability, Rat” value is 60%. The “Liver microsome stability, Dog” value in series [5] worked out at 54%. Also, the “Liver microsome stability, Monkey” value in series [6] came out at 46%. The IC50 in series [7], in [8] and in [9] was over 10 µM each time.

As a reminder, the fraction unbound is free concentration divided by total concentration. A word on the kinetic solubility: it is the concentration staying in solution when a stock, usually in DMSO, is diluted into the medium. The term IC50 denotes the concentration needed to halve the response being measured.
